From patent US20100137421A1, “SMALL MOLECULE THERAPEUTICS, SYNTHESIS OF ANALOGUES AND DERIVATIVES AND METHODS OF USE” (priority 2006, published 2010)
Read-outs that look alike come from different tables or passages of the source.

Tests used:
A549 (lung) = assay: Trypan-blue exclusion assay, A549; format: cell-based
HT29 (colon) = assay: Trypan-blue exclusion assay, HT29; format: cell-based
[1] = Animal study, body weight/toxicity in SCID mice injected with primary human leukemia cells; format: in vivo; conditions: IV injections
Procedure: SCID mice were injected with primary human leukemia cells. Seven days following injection of leukemia cells, mice were given IV injections of gambogic acid, gambogic acid analog (17), or PBS (control). Each treatment group contained 3 mice which were monitored for body weight upon each injection.

[2] = WST assay, cell viability; format: cell-based; conditions: human, HUVE (human umbilical vein endothelial) cells, 24 h incubation, read-out: IC50, cytotoxicity (WST assay)
Procedure: Cell viability was determined using the WST assay in HUVE (human umbilical vein endothelial) cells that measures metabolic activity of cells alive. Compound 17 was dissolved in DMSO and further diluted with Endothelial Cell Growth Medium (PromoCell, Heidelberg, Germany) to obtain a final concentration as indicated. HUVE cells (PromoCell, Heidelberg, Germany) were seeded into each well of a 96-well cell culture plate at 7000 cells per well and incubated at 37° C. for 24 h with the indicated concentrations of each compound. The final volume was 100 μL per well. Control samples were incubated with the solvent alone. Each experiment was repeated in triplicate. Afterwards the WST-1 reagent was added to the cells at 10 μL per well and the cells further incubated at 37° C. for additional 3 h. Then the cell culture plate was agitated thoroughly for 1 minute on a shaker at 200 U/min. The absorbance of each sample was measured using a microplate reader at 440 nm. The reference wavelength was 690 nm.

M21 (melanoma) = assay: Trypan-blue exclusion assay, M21; format: cell-based
Procedure: (§1) Compounds such as desoxymorellin, gambogic acid, gambogin and 17 were further evaluated in a panel of solid and non-solid tumor cell lines. CEM cells were plated in a 24-well plate in complete media at 50×10^3 cells/well. Cells were treated with gambogin at concentrations of 0.25, 0.5, 1.0 μM or with 0.1% DMSO (control cells). Cells were incubated for 4 days and then the number of viable cells was determined after the addition of trypan-blue dye by counting the cells which exclude trypan-blue in a hemocytometer. Data for inhibition of cell proliferation is provided in.

[3] = test system: HL-60 promyelocytic leukemia cell line; assay: 3H-thymidine incorporation assay, HL-60; format: cell-based; conditions: HL-60, 48 h incubation, 3H-thymidine pulse 6 h, read-out: IC50, inhibition of cell proliferation, HL-60
Procedure: (§2) The ability of the compounds to inhibit cancer cell growth was evaluated in promyelocytic leukemia cell line, HL-60, using a ^3H-thymidine incorporation assay. Cells were plated in a 96-well plate at 10-20×10^3 cells/well in RPMI supplemented with 10% fetal bovine serum, 2 mM glutamine, 1% penicillin/streptomycin (complete medium). The caged Garcinia xanthones were added to the cells at increasing concentrations and 0.1% DMSO was added to control cells. Cells were incubated for 48 h and then pulsed with ^3H-thymidine for 6 h. Incorporation of ^3H-thymidine was determined in a scintillation counter (Beckman Coulter Inc., Fullerton, Calif.) after cells were washed and deposited onto glass microfiber filters using a cell harvester M-24 (Brandel, Gaithersburg, Md.). Table 1 provides IC50 values for the natural products gambogic acid and gambogin, forbesione and deoxymorellin.

HUVE cells = assay: Apoptosis assay (Cell Death Detection ELISA PLUS); format: cell-based, human
Procedure: The compounds were dissolved in DMSO and further diluted with Endothelial Cell Growth Medium (PromoCell, Heidelberg, Germany) to obtain final concentrations as indicated. HUVE cells were seeded into each well of a 96-well cell culture plate at 10000 cells per well and incubated at 37° C. for 10 h with the indicated concentrations of each compound. The final volume was 100 μL per well. Control samples were incubated with the solvent alone. Each sample was repeated three times. The proapoptotic effect was detected by using the Cell Death Detection ELISA^PLUS kit (Roche Diagnostics GmbH, Mannheim, Germany) according to the manufactor's instructions. The kit constitutes a photometric enzyme-immunoassay for the qualitative and quantitative in vitro determination of cytoplasmic histone-associated-DNA-fragments (mono- and oligo-nucleosomes) after induced cell death. Due to the working procedure the kind of cell death (apoptosis or necrosis) […]. The absorption values A (A405nm-A490nm) measured give a quantitative indication of the induced amount of apoptosis/necrosis. The higher the absorption A, the higher the induction of apoptosis/necrosis at the corresponding concentrations of the compounds.

[4] = test system: CEM T-cell acute lymphoblastic leukemia cell line; assay: Trypan-blue exclusion assay, CEM; format: cell-based; conditions: Homo sapiens, read-out: IC50 (μM), CEM leukemia
Procedure: as §1

[5] = test system: HL-60/ADR cells (multidrug resistant clone, mdr-1 transfected); assay: 3H-thymidine incorporation assay, HL-60/ADR; format: cell-based; conditions: 48 h incubation, 3H-thymidine pulse 6 h, read-out: IC50, inhibition of cell proliferation, HL-60/ADR
Procedure: as §2
The compounds were also evaluated in HL-60/ADR cells, a multidrug resistant clone obtained by transfection of HL-60 cells with mdr-1. (See, A. Batova, L. E. Shao, M. B. Diccianni, A. L. Yu, T. Tanaka, A. Rephaeli, A. Nudelman and J. Yu, Blood, 2002, 100, 3319-24). […] Without being bound to any particular theory, it is believed that the caged Garcinia xanthones are not subject to the mechanism of chemo-resistance resulting from the expression of mdr, characteristic of many relapsed cancers. (See, M. M. Gottesman and I. Pastan, Annu. Rev. Biochem., 1993, 62, 385-427; S. Simon, D. Roy and M. Schindler, PNAS, 1994, 91, 1128-1132 and A. K. Larsen, A. E. Escargeuil and A. Skladanowski, Pharmacol. Ther., 2000, 85, 217-229).

MCF-7 (breast) = assay: Trypan-blue exclusion assay, MCF-7; format: cell-based
PC3 (prostate) = assay: Trypan-blue exclusion assay, PC3; format: cell-based
[6] = test system: HEL (Human Embryonic Lung fibroplasts); conditions: cited from earlier work
[7] = test system: (HeLa) Henrietta Lacks cervical cancer cells; conditions: cited from earlier work

| Structure (SMILES) | IC50 (A549 (lung); Homo sapiens) [µM] | IC50 (HT29 (colon); Homo sapiens, HT-29) [µM] | toxicity (body weight) compared to PBS control [1] | IC50 (M21 (melanoma); Homo sapiens) [µM] | IC50 ([3]; Homo sapiens) [µM] | IC50 ([4]; 96 h, CEM, 4 days incubation) [µM] | IC50 ([5]; Homo sapiens, HL60/ADR) [µM] | IC50 [3] [µM] | IC50 [5] [µM] | IC50 (MCF-7 (breast); Homo sapiens, MCF7) [µM] | IC50 (PC3 (prostate); Homo sapiens, PC-3) [µM] | other results |
| --- | --- | --- | --- | --- | --- | --- | --- | --- | --- | --- | --- | --- |
| CC(C)=CCC12OC(C)(C)C3CC(C=C4C(=O)c5ccccc5OC431)C2=O (stereo not drawn) [Compound 17] | > 4 | 3.1 | no significant toxicity | 2.2 | 1.5 | 0.3 | 1.4 | – | – | – | – | IC50 at 24 h [2]: 1.38 µM; subset of cells with necrosis (HUVE cells; HUVE cells, concentrations >3 μM, 10 h): ~10%; cell necrosis (HUVE cells; HUVE cells, concentrations lower than 1.5 μM, 10 h): not detected; HUVE cells undergoing apoptosis (HUVE cells; after 10 h, dose-dependent): > 90% |
| CC(C)=CCc1c(O)cc(O)c2c1O[C@]13C(=C[C@@H]4C[C@H]1C(C)(C)O[C@@]3(CC=C(C)C)C4=O)C2=O [Forbesione] | – | – | – | – | – | – | – | 2.2 | 2 | – | – | – |
| CC(C)=CCc1c2c(c(O)c3c1O[C@@]14C(=C[C@H]5CC1C(C)(C)O[C@]4(CC=C(C)C)C5=O)C3=O)C=CC(C)(C)O2 [desoxymorellin] | – | – | – | – | – | – | – | 1 | 1.1 | – | – | IC50 (A549 (lung)): 2.1 µM; IC50 (HT29 (colon); HT29): 1.2 µM; IC50 (MCF-7 (breast); MCF-7): 0.9 µM; IC50 (M21 (melanoma)): 1.6 µM; IC50 (PC3 (prostate); PC3): 1.2 µM |
| CC(C)=CCC[C@]1(C)C=Cc2c(O)c3c(c(CC=C(C)C)c2O1)O[C@]12C(=C[C@@H]4C[C@H]1C(C)(C)O[C@@]2(C/C=C(/C)C(=O)O)C4=O)C3=O [gambogic acid] | 1.8 | 0.7 | some toxicity | 1.2 | 0.3 | 0.15 | 0.5 | – | – | 0.4 | 0.4 | – |
| CC(C)=CCCC1(C)C=Cc2c(O)c3c(c(CC=C(C)C)c2O1)O[C@]12C(=CC4C[C@H]1C(C)(C)OC2(CC=C(C)C)C4=O)C3=O (stereo partly drawn) [gambogin] | 1.8 | 1 | – | 1 | 0.8 | – | 1.1 | – | – | 1.1 | 1.1 | IC50 ([4]; CEM-4, 96 h): 0.35 µM |
| CC(C)=CCc1c2c(c(O)c3c1O[C@]14C(=C[C@@H]5C[C@H]1C(C)(C)O[C@@]4(C/C=C(/C)C=O)C5=O)C3=O)C=CC(C)(C)O2 [morellin] | – | – | – | – | – | – | – | – | – | – | – | cytotoxicity against HEL [6]: good cytotoxicity; cytotoxicity against HeLa [7]: good cytotoxicity |
